Where two headings read alike, the source gives them in different places.
Experiments:
KRAS (WT) = target: T1, KRAS (WT) (Homo sapiens, UniProt P01116); test: In-vitro RAS-RAF binding assay (RRB), HTRF/FRET; assay type: biochemical; conditions: Table 2, average of multiple runs of each compound
T1 construct: Biotinylated KRAS protein amino acids 1-169 (produced at Erasca); made in house
Method in brief: (§1)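 Compounds preincubated with terbium-labelled biotinylated KRAS (aa 1-169, 30 nM) before 60 min SOS1-catalysed exchange to GTPgS. Binding of the d2-labelled cRAF RBD (30 nM) is read as FRET at equilibrium in duplicate. Buffer: 50 mM HEPES pH 7.5, 100 mM NaCl, 1 mM MgCl2, 1 mM DTT.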

KRAS G12D = KRAS G12D (Homo sapiens, UniProt P01116, G12D); test: In-vitro RAS-RAF binding assay (RRB), HTRF/FRET; assay type: biochemical; design: Biotinylated KRAS protein amino acids 1-169 (produced at Erasca); made in house; conditions: Table 2, average of multiple runs of each compound
Method in brief: as §1

[1] = read-out: Inhibition of RAS-RAF Binding (in-vitro) KRAS (WT) IC50
[2] = read-out: Inhibition of RAS-RAF Binding (in-vitro) KRAS (G12D) IC50

T1 sequence (P01116 1-169 isoform P01116-2): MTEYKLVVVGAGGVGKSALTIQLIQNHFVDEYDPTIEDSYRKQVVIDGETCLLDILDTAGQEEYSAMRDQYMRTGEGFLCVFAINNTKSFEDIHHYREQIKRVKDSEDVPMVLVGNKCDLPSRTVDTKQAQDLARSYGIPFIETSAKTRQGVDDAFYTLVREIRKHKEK
KRAS G12D, sequence (P01116 1-169 isoform P01116-2 G12D): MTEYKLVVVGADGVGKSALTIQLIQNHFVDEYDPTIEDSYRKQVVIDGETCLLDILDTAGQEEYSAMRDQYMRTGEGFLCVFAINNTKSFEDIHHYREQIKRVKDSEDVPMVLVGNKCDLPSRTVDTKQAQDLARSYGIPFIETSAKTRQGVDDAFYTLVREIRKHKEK

| SMILES | IC50 (KRAS (WT); Inhibition of RAS-RAF Binding (in-vitro) KRAS (WT) IC50 (nM)) | IC50 (KRAS G12D; Inhibition of RAS-RAF Binding (in-vitro) KRAS (G12D) IC50 (nM)) | IC50 (KRAS (WT); [1]) | IC50 (KRAS G12D; [2]) |
| --- | --- | --- | --- | --- |
| C#Cc1c(F)ccc2cc(O)cc(-c3ncc4c(N5CC6CCC(C5)N6)nc(OC[C@@H]5CCCN5CCCOCCC(=O)N[C@H](C(=O)N5C[C@H](O)C[C@H]5C(=O)N[C@@H](C)c5ccc(N6CCC[C@H]6C(N)=O)cc5)C(C)(C)C)nc4c3F)c12 [Example 46, (2S,4R)-1-((2S)-2-(3-(3-((2S)-2-(((4-(3,8-diazabicyclo[3.2.1]octan-3-yl)-7-(8-ethynyl-7-fluoro-3-hydroxynaphthalen-1-yl)-8-fluoropyrido[4,3-d]pyrimidin-2-yl)oxy)methyl)pyrrolidin-1-yl)propoxy)propanamido)-3,3-dimethylbutanoyl)-N-((S)-1-(4-((S)-2-carbamoylpyrrolidin-1-yl)phenyl)ethyl)-4-hydroxypyrrolidine-2-carboxamide] | 21.4 nM | 5.87 nM | – | – |
| C#Cc1c(F)ccc2cc(O)cc(-c3ncc4c(N5CC6CCC(C5)N6)nc(OC[C@@H]5CCCN5CCCOCCC(=O)N[C@H](C(=O)N5C[C@H](O)C[C@H]5C(=O)N[C@@H](C)c5ccc(-c6c(C)ccnc6C)cc5)C(C)(C)C)nc4c3F)c12 [Example 47, (2S,4R)-1-((2S)-2-(3-(3-((2S)-2-(((4-(3,8-diazabicyclo[3.2.1]octan-3-yl)-7-(8-ethynyl-7-fluoro-3-hydroxynaphthalen-1-yl)-8-fluoropyrido[4,3-d]pyrimidin-2-yl)oxy)methyl)pyrrolidin-1-yl)propoxy)propanamido)-3,3-dimethylbutanoyl)-N-((S)-1-(4-(2,4-dimethylpyridin-3-yl)phenyl)ethyl)-4-hydroxypyrrolidine-2-carboxamide] | – | – | 22.2 nM | 7.67 nM |
| C#Cc1c(F)ccc2cc(O)cc(-c3ncc4c(N5CC6CCC(C5)N6)nc(OC[C@@H]5CCCN5CCCOCCC(=O)N[C@H](C(=O)N5C[C@H](O)C[C@H]5C(=O)N[C@@H](C)c5ccc(-c6cccnc6C(F)(F)F)cc5)C(C)(C)C)nc4c3F)c12 [Example 48, (2S,4R)-1-((2S)-2-(3-(3-((2S)-2-(((4-(3,8-diazabicyclo[3.2.1]octan-3-yl)-7-(8-ethynyl-7-fluoro-3-hydroxynaphthalen-1-yl)-8-fluoropyrido[4,3-d]pyrimidin-2-yl)oxy)methyl)pyrrolidin-1-yl)propoxy)propanamido)-3,3-dimethylbutanoyl)-4-hydroxy-N-((S)-1-(4-(2-(trifluoromethyl)pyridin-3-yl)phenyl)ethyl)pyrrolidine-2-carboxamide] | – | – | 24.7 nM | 7.53 nM |
| C#Cc1c(F)ccc2cc(O)cc(-c3ncc4c(N5CC6CCC(C5)N6)nc(OC[C@@H]5CCCN5CCCOCCC(=O)O[C@H](C(=O)N5C[C@H](O)C[C@H]5C(=O)N[C@@H](C)c5ccc(-c6c(C)cccc6C(F)(F)F)cc5)C(C)(C)C)nc4c3F)c12 [Example 50, (S)-1-((2S,4R)-4-hydroxy-2-(((S)-1-(2′-methyl-6′-(trifluoromethyl)-[1,1′-biphenyl]-4-yl)ethyl)carbamoyl)pyrrolidin-1-yl)-3,3-dimethyl-1-oxobutan-2-yl 3-(3-((2S)-2-(((4-(3,8-diazabicyclo[3.2.1]octan-3-yl)-7-(8-ethynyl-7-fluoro-3-hydroxynaphthalen-1-yl)-8-fluoropyrido[4,3-d]pyrimidin-2-yl)oxy)methyl)pyrrolidin-1-yl)propoxy)propanoate] | – | – | 98.9 nM | 10.2 nM |
| C#Cc1c(F)ccc2cc(O)cc(-c3ncc4c(N5CC6CCC(C5)N6)nc(OC[C@@H]5CCCN5CCCOCCC(=O)N[C@H](C(=O)N5C[C@H](O)C[C@H]5C(=O)N[C@@H](C)c5ccc(-c6cccc(F)c6F)cc5)C(C)(C)C)nc4c3F)c12 [Example 51, (2S,4R)-1-((2S)-2-(3-(3-((2S)-2-(((4-(3,8-diazabicyclo[3.2.1]octan-3-yl)-7-(8-ethynyl-7-fluoro-3-hydroxynaphthalen-1-yl)-8-fluoropyrido[4,3-d]pyrimidin-2-yl)oxy)methyl)pyrrolidin-1-yl)propoxy)propanamido)-3,3-dimethylbutanoyl)-N-((S)-1-(2′,3′-difluoro-[1,1′-biphenyl]-4-yl)ethyl)-4-hydroxypyrrolidine-2-carboxamide] | – | – | 95.7 nM | 9.09 nM |
| C#Cc1c(F)ccc2cc(O)cc(-c3ncc4c(N5CC6CCC(C5)N6)nc(OC[C@@H]5CCCN5CCCOCCC(=O)N[C@H](C(=O)N5C[C@H](O)C[C@H]5C(=O)N[C@@H](C)c5ccc(-c6cc(F)c(F)c(F)c6)cc5)C(C)(C)C)nc4c3F)c12 [Example 52, (2S,4R)-1-((2S)-2-(3-(3-((2S)-2-(((4-(3,8-diazabicyclo[3.2.1]octan-3-yl)-7-(8-ethynyl-7-fluoro-3-hydroxynaphthalen-1-yl)-8-fluoropyrido[4,3-d]pyrimidin-2-yl)oxy)methyl)pyrrolidin-1-yl)propoxy)propanamido)-3,3-dimethylbutanoyl)-4-hydroxy-N-((S)-1-(3′,4′,5′-trifluoro-[1,1′-biphenyl]-4-yl)ethyl)pyrrolidine-2-carboxamide] | – | – | 114 nM | 7.84 nM |
| C#Cc1c(F)ccc2cc(O)cc(-c3ncc4c(N5CC6CCC(C5)N6)nc(OC[C@@H]5CCCN5CCCOCC(=O)N[C@H](C(=O)N5C[C@H](O)C[C@H]5C(=O)N[C@@H](C)c5ccc(-c6c(F)ccc(F)c6F)cc5)C(C)(C)C)nc4c3F)c12 [Example 53, (2S,4R)-1-((2S)-2-(2-(3-((2S)-2-(((4-(3,8-diazabicyclo[3.2.1]octan-3-yl)-7-(8-ethynyl-7-fluoro-3-hydroxynaphthalen-1-yl)-8-fluoropyrido[4,3-d]pyrimidin-2-yl)oxy)methyl)pyrrolidin-1-yl)propoxy)acetamido)-3,3-dimethylbutanoyl)-4-hydroxy-N-((S)-1-(2′,3′,6′-trifluoro-[1,1′-biphenyl]-4-yl)ethyl)pyrrolidine-2-carboxamide] | – | – | 123 nM | 8.82 nM |
| C#Cc1c(F)ccc2cc(O)cc(-c3ncc4c(N5CC6CCC(C5)N6)nc(OC[C@@H]5CCCN5CCCOCCC(=O)N[C@H](C(=O)N5C[C@H](O)C[C@H]5C(=O)N[C@@H](C)c5ccc(-c6c(F)c(F)cc(F)c6F)cc5)C(C)(C)C)nc4c3F)c12 [Example 54, (2S,4R)-1-((2S)-2-(3-(3-((2S)-2-(((4-(3,8-diazabicyclo[3.2.1]octan-3-yl)-7-(8-ethynyl-7-fluoro-3-hydroxynaphthalen-1-yl)-8-fluoropyrido[4,3-d]pyrimidin-2-yl)oxy)methyl)pyrrolidin-1-yl)propoxy)propanamido)-3,3-dimethylbutanoyl)-4-hydroxy-N-((S)-1-(2′,3′,5′,6′-tetrafluoro-[1,1′-biphenyl]-4-yl)ethyl)pyrrolidine-2-carboxamide] | – | – | 52.9 nM | 9.65 nM |
| C#Cc1c(F)ccc2cc(O)cc(-c3ncc4c(N5CC6CCC(C5)N6)nc(OC[C@@H]5CCCN5CCCOCCC(=O)N[C@H](C(=O)N5C[C@H](O)C[C@H]5C(=O)N[C@@H](C)c5ccc(-c6ccc(F)c(F)c6F)cc5)C(C)(C)C)nc4c3F)c12 [Example 55, (2S,4R)-1-((2S)-2-(3-(3-((2S)-2-(((4-(3,8-diazabicyclo[3.2.1]octan-3-yl)-7-(8-ethynyl-7-fluoro-3-hydroxynaphthalen-1-yl)-8-fluoropyrido[4,3-d]pyrimidin-2-yl)oxy)methyl)pyrrolidin-1-yl)propoxy)propanamido)-3,3-dimethylbutanoyl)-4-hydroxy-N-((S)-1-(2′,3′,4′-trifluoro-[1,1′-biphenyl]-4-yl)ethyl)pyrrolidine-2-carboxamide] | – | – | 67 nM | 9.79 nM |

Source: patent US20240293558A1, “KRAS INHIBITOR CONJUGATES” (Erasca, Inc., priority 2021, published 2024)
